Measured values published in BindingDB's records for doi:10.1016/S0960-894X(00)80241-3 (1991).

Experiment: Inhibition of [14C]arachidonic acid conversion to 5-HETE by broken cell 5-lipoxygenase in vitro (guinea pig PMN)

Row | IC50 | Structure (SMILES)
1 | 420 nM | COc1ccc2c(c1C(=O)NO)Nc1ccccc1O2 [2-Methoxy-10H-phenoxazine-1-carboxylic acid hydroxyamide]
2 | 770 nM | COC(=O)c1cccc2c1Nc1ccccc1O2 [10H-Phenoxazine-1-carboxylic acid methyl ester]
3 | 610 nM | O=C(O)c1cccc2c1Nc1ccccc1O2 [10H-Phenoxazine-1-carboxylic acid]
4 | 87 nM | CN(O)C(=O)c1ccc2c(c1)Nc1ccccc1O2 [10H-Phenoxazine-2-carboxylic acid hydroxy-methyl-amide]
5 | 65 nM | COC(=O)c1ccc2c(c1)Nc1ccccc1O2 [10H-Phenoxazine-2-carboxylic acid methyl ester]
6 | 4600 nM | O=C(O)c1ccc2c(c1)Nc1ccccc1O2 [10H-Phenoxazine-2-carboxylic acid]
7 | 35 nM | CCOC(=O)/C=C/c1ccc2c(c1)Nc1ccccc1O2 [(E)-3-(10H-Phenoxazin-2-yl)-acrylic acid ethyl ester]
8 | 1200 nM | O=C(O)/C=C/c1ccc2c(c1)Nc1ccccc1O2 [(E)-3-(10H-Phenoxazin-2-yl)-acrylic acid]
9 | 85 nM | CN(O)C(=O)/C=C/c1ccc2c(c1)Nc1ccccc1O2 [(E)-N-Hydroxy-N-methyl-3-(10H-phenoxazin-2-yl)-acrylamide]

Row | Structure (SMILES) | IC50
10 | c1ccc2c(c1)Nc1ccccc1O2 [10H-Phenoxazine] | 20 nM
